Results as given in US8293489B2, “Methods for detection of biological substances” (priority 2007, dated 2012).
Marks after values point to notes of the source that are not given here.

Assays:
Format in all cases: in vivo, human
[1] = system: TNFα; assay: TNFα in nasal mucus in patients with hyposmia treated with theophylline
Source text: (§1) Tables 36-38 illustrate detection and measurement of TNFα, TNFR 1 and TNFR 2 in nasal mucus of patients with graded loss of smell following treatment with theophylline. […] Further, nasal mucus can be used as an index of disease, disease severity and efficacy of disease treatment. Without limiting the scope of the present invention, this approach is applicable to other substances in nasal mucus in relationship to other disease processes (e.g., cancer, stroke) and to follow-up of their treatment with any drug. […]
These studies were extended to reveal levels of TNFα in nasal mucus of patients with graded loss of smell following treatment with theophylline (Table 36). Smell loss was graded such that loss was greatest in Type I hyposmia, less in Type II and still less in Type III (I>II>III). […] In Type I hyposmia TNFα decreased 40% after treatment with 400 mg theophylline and 57% after treatment 600 mg. In Type II hyposmia TNFα decreased 11% after treatment with 600 mg theophylline.

[2] = system: TRAIL; assay: TRAIL in nasal mucus in patients with hyposmia before and after treatment with theophylline; settings: for Nasal mucus TRAIL: patients with hyposmia (5)
Source text: Table 16 illustrates detection and measurement of TRAIL in nasal mucus in patients with hyposmia before and after treatment with theophylline at various doses. […] Without limiting the scope of the present invention, other drugs are also considered with in the scope of the present invention for the treatment of various diseases. This is one of the example of the multiple examples of drugs to treat disease in which changes of various substances found in nasal mucus reflect biochemical normalization and functional improvement in the disease process.
Table 16 illustrates detection and measurement of TRAIL in nasal mucus in patients with hyposmia before and after treatment with theophylline at various doses.

[3] = system: TNFR 2; assay: TNFR 2 in nasal mucus in patients with hyposmia treated with theophylline
Source text: Tables 36-38 illustrate detection and measurement of TNFα, TNFR 1 and TNFR 2 in nasal mucus of patients with graded loss of smell following treatment with theophylline. […] Further, nasal mucus can be used as an index of disease, disease severity and efficacy of disease treatment. Without limiting the scope of the present invention, this approach is applicable to other substances in nasal mucus in relationship to other disease processes (e.g., cancer, stroke) and to follow-up of their treatment with any drug.
Table 35 illustrates detection and measurement of TNFα, and soluble TNF receptors 1 and 2, moieties in the nasal mucus. TNFα, and soluble TNF receptors 1 and 2 increase in systems undergoing excessive apoptosis.
With a dose dependent increase of theophylline treatment levels of TNFR 2 in nasal mucus decreased consistent with a dose dependent increase in smell function. Levels of TNFR 2 in patients with Type I and Type II hyposmia decreased almost 50% on 600 mg theophylline consistent with their greatest return of smell function. At this highest level of theophylline levels of TNFR 2 were decreased in relationship to the decrease in smell function—TNFR 2, Type I>Type II>Type III; smell loss, Type I>Type II>Type III.

[4] = system: patients with hyposmia; assay: Smell function in patients with hyposmia treated with theophylline
Source text: Theophylline may also restore smell function through other mechanisms.
Its continual measurement during treatment of these disorders helps in monitoring efficacy of therapy. The detection of NO in nasal mucus provides a non invasive method of diagnosing various diseases related to human physiology and pathology.

[5] = system: TNFR 1; assay: TNFR 1 in nasal mucus in patients with hyposmia treated with theophylline
Source text: as §1
With increased smell loss pre treatment TNFR 1 levels were increased in nasal mucus in patients with Type I hyposmia (whose smell loss was increased over that of patients with Type II hyposmia). After theophylline treatment, as a dose of drug increased, TNFR 1 levels decreased in Type I associated with increases in smell function. […] The greater was the smell loss, the higher was the level of TNFR 1.

[6] = system: nitric oxide (NO); assay: NO in nasal mucus in patients with hyposmia before and after theophylline treatment; settings: for NO in nasal mucus: Patients (12)
Source text: Table 33 in the examples illustrates NO in nasal mucus in patients treated with theophylline in various doses before and after drug treatment. NO levels in nasal mucus changed following the treatment of patients with smell loss. […] Its continual measurement during treatment of the disorders helps in monitoring efficacy of therapy. The detection of NO in nasal mucus provides a non invasive method of diagnosing various diseases related to human physiology and pathology. The methods of the present invention include treatment of diseases by modulating the concentrations of NO by use of drugs or agents. The method of treatment is preferably by nasal administration.
Table 33 illustrates NO levels in nasal mucus in patients treated with Theophylline in various doses before and after drug treatment. NO levels in nasal mucus changed following the treatment of patients with smell loss. […] Its continual measurement during treatment of these disorders helps in monitoring efficacy of therapy. The detection of NO in nasal mucus provides a non invasive method of diagnosing various diseases related to human physiology and pathology.

[7] = patients with hyposmia, stepwise increase in theophylline treatment
[8] = patients with hyposmia, theophylline at various doses
[9] = HYPOSMIA TYPE I (7), theophylline 200 mg orally daily
[10] = HYPOSMIA TYPE I (7), theophylline 600 mg orally daily
[11] = HYPOSMIA TYPE II (10), theophylline 200 mg orally daily
[12] = HYPOSMIA TYPE II (10), theophylline 400 mg orally daily
[13] = HYPOSMIA TYPE II (10), theophylline 600 mg orally daily
[14] = HYPOSMIA TYPE III (2), theophylline 600 mg orally daily
[15] = patients with hyposmia, theophylline in graded doses

With Cn1c(=O)c2[nH]cnc2n(C)c1=O [theophylline] the “TNF∝ in nasal mucus” value ([1]; HYPOSMIA TYPE I (8), theophylline 400 mg orally daily) was 15.6, the “TNF∝ in nasal mucus” value ([1]; HYPOSMIA TYPE I (8), theophylline 600 mg orally daily) was 11.2 ± 4.4 and the “TNF∝ in nasal mucus” value ([1]; HYPOSMIA TYPE II (13), theophylline 200 mg orally daily) was 14.9 ± 2.5. For the same compound, the “TNF∝ in nasal mucus” value ([1]; HYPOSMIA TYPE II (13), theophylline 400 mg orally daily) was 11.5 ± 3.2, the “TNF∝ in nasal mucus” value ([1]; HYPOSMIA TYPE II (13), theophylline 600 mg orally daily) was 4.3 ± 0.8^a and the “TNF∝ in nasal mucus” value ([1]; HYPOSMIA TYPE III (3), theophylline 600 mg orally daily) was 1.2 ± 0.7^bc. For the same compound, the “decrease in TNFα in nasal mucus” value ([1]; Type I hyposmia, after treatment 600 mg theophylline) was 57%, the “decrease in TNFα in nasal mucus” value ([1]; Type I hyposmia, after treatment with 400 mg theophylline) was 40% and the “decrease in TNFα in nasal mucus” value ([1]; Type II hyposmia, after treatment with 600 mg theophylline) was 11%. For the same compound, the “change in TNFα levels in nasal mucus” value ([1]; each hyposmia patient group, with each increased dose of theophylline) was “decreased in each patient group”, the “TNF∝ in nasal mucus” value ([1]; patients with hyposmia (24), Theophylline treatment (mg/l) 200) was 20.0 ± 2.8 pg/mL and the “TNF∝ in nasal mucus” value ([1]; patients with hyposmia (24), Theophylline treatment (mg/l) 400) was 12.1 ± 2.1^d pg/ml. The “TNF∝ in nasal mucus” value ([1]; patients with hyposmia (24), Theophylline treatment (mg/l) 600) was 7.4 ± 1.8^a pg/ml, the “change in TNFα in nasal mucus” value [1, 7] was “significant dose-response decrease” and the “Nasal mucus TRAIL” value ([2]; theophylline 200 mg) was 855 µg/mL. For the same compound, the “Nasal mucus TRAIL” value ([2]; theophylline 400 mg) was 791 µg/mL, the “Nasal mucus TRAIL” value ([2]; theophylline 600 mg) was 247 µg/mL and the “change in TRAIL in nasal mucus” value [2, 8] was “dose-dependent decrease in TRAIL”. For the same compound, the “TNFR 2 in nasal mucus” value [3, 9] was 3,100 ± 1,184, the “TNFR 2 in nasal mucus” value [3, 10] was 1,491 ± 1,102 and the “TNFR 2 in nasal mucus” value [3, 11] was 1,378 ± 480. For the same compound, the “TNFR 2 in nasal mucus” value [3, 12] was 1,014 ± 272, the “TNFR 2 in nasal mucus” value [3, 13] was 553 ± 158 and the “TNFR 2 in nasal mucus” value [3, 14] was 436 ± 443. For the same compound, the “change in TNFR 2 levels in nasal mucus” value ([3]; dose dependent increase of theophylline treatment) was “decreased”, the “decrease in TNFR 2 levels in nasal mucus” value ([3]; patients with Type I and Type II hyposmia, 600 mg theophylline) was roughly 50% and the “TNFR 2 in nasal mucus” value ([3]; patients with hyposmia (18), Theophylline treatment (mg orally daily) 200) was 1,952 ± 339 pg/ml. For the same compound, the “TNFR 2 in nasal mucus” value ([3]; patients with hyposmia (18), Theophylline treatment (mg orally daily) 400) was 949 ± 180^c pg/ml, the “TNFR 2 in nasal mucus” value ([3]; patients with hyposmia (18), Theophylline treatment (mg orally daily) 600) was 916 ± 344 pg/mL and the “change in soluble TNF receptor 2 in nasal mucus” value [3, 7] was “significant dose-response decrease”. For the same compound, the smell function ([4]; patients with hyposmia (loss of smell), general statement) was “restores smell function in some patients with hyposmia”, the smell function ([4]; patients with hyposmia, 600 mg theophylline) was “restored smell function to or toward normal” and the smell function [4, 8] was “returned smell function to normal in a dose-dependent manner”. The smell function [4, 15] was “graded increases in smell function”, the “TNFR 1 in nasal mucus” value [5, 9] was 6,521 ± 1,304^c and the “TNFR 1 in nasal mucus” value ([5]; HYPOSMIA TYPE I (7), theophylline 400 mg orally daily) was 1,498. For the same compound, the “TNFR 1 in nasal mucus” value [5, 10] was 1,832 ± 704^a, the “TNFR 1 in nasal mucus” value [5, 11] was 1,462 ± 371 and the “TNFR 1 in nasal mucus” value [5, 12] was 1,087 ± 335. For the same compound, the “TNFR 1 in nasal mucus” value [5, 13] was 862 ± 335, the “TNFR 1 in nasal mucus” value [5, 14] was 585 ± 335 and the “change in TNFR 1 levels in nasal mucus” value ([5]; Type I hyposmia, as dose of drug increased) was “decreased”. The “TNFR 1 in nasal mucus” value ([5]; patients with hyposmia (19), Theophylline treatment 200) was 3,148 ± 663 pg/ml, the “TNFR 1 in nasal mucus” value ([5]; patients with hyposmia (19), Theophylline treatment 400) was 1,146 ± 220^b pg/ml and the “TNFR 1 in nasal mucus” value ([5]; patients with hyposmia (19), Theophylline treatment 600) was 1,220 ± 286^ab pg/ml. For the same compound, the “change in soluble TNF receptor 1 in nasal mucus” value [5, 7] was “significant dose-response decrease”, the “NO in nasal mucus” value ([6]; Theophylline 200 mg) was 0.25 ± 0.01 µg/mL and the “NO in nasal mucus” value ([6]; Theophylline 400 mg) was 0.40 ± 0.06 µg/mL. The “NO in nasal mucus” value ([6]; Theophylline 600 mg) was 0.59 ± 0.16 µg/mL and the “change in NO in nasal mucus” value [6, 15] was “increases in nasal mucus NO”.
